{
  "source": "patent US11439619B2",
  "about": "“Phosphaplatin compounds as immuno-modulatory agents and therapeutic uses thereof” (Phosplatin Therapeutics Inc., priority 2017, dated 2022)",
  "key": {"[1]": {"set-up": "species or system rats", "settings": "rat, in vivo", "description": "Importantly, Pt in plasma, but not present in the PUF, is believed to be protein-bound and not bioavailable for therapeutic benefit."}, "[2]": {"test": "renal function and tolerability in rats", "format": "in vivo"}, "[3]": {"test_system": "GXF97 gastric patient-derived xenograft", "test": "GXF97 gastric patient-derived xenograft (PDX) model", "format": "in vivo", "settings": "higher doses not tolerated by all mice, data not shown"}, "MC38 cells": {"test_system": "MC38 cells", "test": "FACS analysis of tumor tissue, MC38 allograft", "format": "in vivo, mice", "description": "(§1) FIG. 8 illustrates fluorescence-activated cell sorting (FACS) analysis of tumor biopsies from a mouse allograft experiment, whereby immune-competent mice were implanted with MC38 cells and were subsequently randomized into control, PT-112, anti-PD-L1 antibody, or combination treatment. Bars are normalized to the control group.\nFIG. 9 illustrates the effect of various treatments on the ratios of different cell populations from tumor biopsies in a mouse allograft experiment using the MC38 cell line, where mice were randomized into vehicle control, PT-112, anti-PD-L1 antibody, and combination treatment groups. […]\nTo better understand the effects of the different treatments on T cell populations, additional immuno-competent mice were implanted with MC38 cells and were subsequently randomized into control, PT-112, anti-PD-L1 antibody, or combination treatment arms (n=5). After 2 weeks of treatment (PT-112 @ 90 mg/kg QW and PD-L1 @ 10 mg/kg BIW), tumor tissue was removed and analyzed via FACS for differences in white blood cell populations. […]\nNot all white blood cell populations are immunogenic. […] To better understand if the changes observed would have a net immunogenic or immunosuppressive effect, ratios of different cell populations were calculated (FIG. 9)."}, "CXF280 colon PDX": {"test_system": "CXF280 colon PDX", "test": "CXF280 colon PDX model", "format": "in vivo"}, "[4]": {"test": "chronic neuropathy indicators after repeat doses over 4 weeks (DRG Pt, NCV)", "format": "in vivo"}, "[5]": {"test_system": "nucleotide excision repair (NER)-deficient HCT116 cells and their isogenic NER-proficient counterparts", "test": "potency in NER-deficient versus NER-proficient HCT116 cells", "format": "cell-based", "description": "(§2) A high degree of correlation was observed between cis and carbo activity, but not between those agents and PT-112. A correlation between PT-112 and oxali was also observed, which led to investigation of cellular targets and mechanisms not shared by these two agents. […] These effects comprise the release of HMGB1 and ATP, the cell surface exposure of calreticulin (CRT), and the suppression of STATS."}, "[6]": {"test_system": "HCT116 colorectal cancer cell line", "test": "calreticulin (CRT) cell surface exposure in HCT116 cells, flow cytometry", "format": "cell-based", "settings": "HCT116, IC50 concentrations, 48 hours", "protocol": "FIG. 2 illustrates the cell surface exposure of calreticulin (CRT) from cells treated with PT-112. CRT cell surface expression was measured via flow cytometry after 48 hours of drug treatment. A peak present to the right of the main peak indicates cells staining positive for CRT, a hallmark of ICD and an indicator of phagocyte targeting.\n(§3) Two such DAMPs are high mobility group box 1 (HMGB1) and calreticulin (CRT). HMGB1 is released from dying cells during ICD, whereas CRT migrates from the endoplasmic reticulum to the cell surface during ICD. To test if PT-112 exposure results in these events that are considered hallmarks of ICD, in vitro experiments using the HCT116 colorectal cancer cell line were conducted.\nCells were then stained with an anti-CRT antibody, and positive staining was detected via flow cytometry."}, "murine TSA cells": {"test_system": "murine TSA cells", "test": "ATP release from TSA cells, luminometric assay", "format": "cell-based", "settings": "48 hours, two concentrations", "protocol": "FIG. 3 illustrates the release of adenosine triphosphate (ATP) from cells treated with PT-112. ATP in the media of cells after 48 hours of drug treatment was measured via a luminometric assay. PT-112 was tested in two concentrations, as was cisplatin (a negative control for ICD), in addition to a single concentration of mitoxantrone (a positive ICD control) and an untreated negative control sample. ATP release is indicative of ICD and involved in recruitment and activation of antigen-presenting cells.\nPT-112 was also tested for its ability to release the DAMP ATP (FIG. 3), which is involved in the recruitment and activation of antigen-presenting cells. Here, murine TSA cells were exposed to either PT-112 at two different concentrations, cisplatin (a negative control for ICD, also at two concentrations), mitoxantrone (a positive ICD control), or no drug control for 48 hours. Subsequently, ATP in the media was measured via a luminometric assay. […] This is again indicative of PT-112 robustly causing ICD."}, "[7]": {"test_system": "broadly platinum-resistant cell panel", "test": "IC50 values in a broadly platinum-resistant cell panel", "format": "cell-based", "description": "as §2"}, "[8]": {"test_system": "PANC1 pancreatic cancer model", "test": "PANC1 pancreatic cancer model", "format": "in vivo"}, "p53 and MDM2": {"test_system": "p53 and MDM2", "test": "impact on p53 and MDM2 levels", "format": "cell-based", "description": "as §2"}, "[9]": {"test": "mouse model of acute neurotoxicity (cold hypersensitivity)", "format": "in vivo", "settings": "single dose, PT-112 at twice the molar concentration of oxali"}, "[10]": {"test_system": "HCT116 colon cancer model", "test": "phosphorylation of H2AX and induction of Ku70 in HCT116 colon cancer model", "format": "cell-based", "settings": "versus oxali at equipotent concentrations", "description": "as §2"}, "[11]": {"test_system": "immunogenic cell death (ICD)", "test": "effects indicative of ICD induction versus oxali", "format": "cell-based", "settings": "compared with oxali", "description": "as §2"}, "[12]": {"test_system": "HCT116 colorectal cancer cell line", "test": "HMGB1 release from HCT116 cells, ELISA", "format": "cell-based", "settings": "HCT116, IC50 concentrations, 48 hours", "protocol": "FIG. 1 illustrates the release of high mobility group box 1 (HMGB1) from cells treated with PT-112. HMGB1 in the media of cells after 48 hours of drug treatment was measured via ELISA. HMGB1 release is involved in ICD and antigen presentation to dendritic cells. Error bars indicate 1 SEM, and p values were generated using two-tailed t-tests.\nas §3\nSubsequently, HMGB1 in the media of the cells was measured via ELISA."}, "CT26 cells": {"test_system": "CT26 cells", "test": "FACS analysis of tumor tissue, CT26 allograft", "format": "in vivo, mice", "description": "as §1, with “6” for “8”, “CT26” for “MC38”, “anti-PD-L” for “anti-PD-L1”\nFIG. 7 illustrates the effect of various treatments on the ratios of different cell populations from tumor biopsies in a mouse allograft experiment using the CT26 cell line, where mice were randomized into vehicle control, PT-112, anti-PD-L antibody, and combination treatment groups. PT-112 treatment groups had large increases in the ratio of immunogenic to immunosuppressive cell types, indicating PT-112 induces a more immunogenic tumor microenvironment.\nAdditionally, tumor tissue was removed from additional treated mice and analyzed via FACS for differences in white blood cell populations."}, "cancer cell models": {"test_system": "cancer cell models", "test": "Pt accumulation in DNA and whole cell extracts of cancer cell models", "format": "cell-based", "settings": "previous work; compared with cisplatin or oxaliplatin exposure", "description": "PT-112 is a new chemical entity under clinical development in the US and the People's Republic of China, designed to minimize particular toxicities associated with traditional platinum agents and drug resistance stemming from DNA damage and repair. As a pyrophosphate-conjugated Pt-containing anti-neoplastic therapeutic, PT-112 differs from platinum therapies in both mechanism and toxicity. […] Nonetheless, PT-112 has potent cytotoxic activity in in vitro systems, implying a different spectrum of targets for PT-112 in comparison to traditional platinum compounds. We explored the activity and mechanism of action of PT-112 by investigating impacts on cancer related proteins and pathways, including those connected to immunogenic cell death (ICD), as well as how PT-112 potency is affected by DNA repair pathways. In addition, PT-112 anticancer activity, pharmacokinetics (PK), and toxicity were measured in multiple in vivo systems."}, "live tumor cells": {"test_system": "live tumor cells", "test": "vaccination experiment with live tumor cell challenge", "format": "in vivo, mice", "settings": "vaccine from agent-killed cells", "protocol": "FIG. 4 illustrates the survival advantage conferred when different vaccines are given to mice before being challenged with a live tumor cell injection. Vaccines are composed of dead and dying cancer cells of the same cell line exposed to different anti-cancer agents, killed by exposure to different agents.\nThe “gold standard” for ICD validation is a vaccine experiment, where mice are injected with dead cell material generated by exposing cells to an anticancer agent. Importantly, the anti-cancer agent is removed, and the mice are only injected with the dead and dying cells. Subsequently, after 1-2 weeks, mice are then challenged with an injection of live tumor cells of the same type used to create the vaccine.\nThis vaccination experiment was conducted using four different treatment groups, one unvaccinated negative control, and three receiving vaccines from the use of different agents: cisplatin (a negative control, non-ICD inducer), mitoxantrone (a positive control ICD inducer), and PT-112 (the experimental arm) (FIG. 4). The vast majority of mice (80-90%) in both negative control groups developed tumors rapidly (within one week)."}, "[13]": {"settings": "data from the literature; cited from earlier work"}},
  "data": [
    {"smiles": "O=P1(O)OP(=O)(O)[O][Pt]2([NH][C@@H]3CCCC[C@H]3[NH]2)[O]1", "note": "(stereo partly drawn) [PT-112, trans-(R,R)-1,2-cyclohexanediamine(pyrophosphato) platinum(II)]", "values": [
      {"measurement": "fraction of Pt in the plasma ultrafiltrate (PUF) relative to total plasma Pt", "setting": "[1]", "value": 72.8, "unit": "%"},
      {"measurement": "stability in plasma (parent by LC-MS/MS)", "setting": "[1]", "value": "stability of PT-112 in plasma"},
      {"measurement": "tolerated concentration relative to cis", "setting": "[2]; rats", "value": 7, "unit": "fold"},
      {"measurement": "effects on renal function (creatinine, BUN and GFR)", "setting": "[2]; rats, PT-112 at 7-fold higher concentrations than cis", "value": "minimal effects"},
      {"measurement": "response at higher doses", "setting": "[3]", "value": "Cases of complete response were observed"},
      {"measurement": "changes in white blood cell populations incl. cytotoxic T cells (CD8+) and helper T cells (CD4+) in tumor", "setting": "MC38 cells; MC38, 2 weeks, PT-112 90 mg/kg QW, PD-L1 10 mg/kg BIW, FACS", "value": "large changes"},
      {"measurement": "ratios of helper T cells and cytotoxic T cells to regulatory T cells", "setting": "MC38 cells; MC38, FACS", "value": "positive effects"},
      {"measurement": "tumor growth", "setting": "CXF280 colon PDX", "value": "Sustained tumor growth delay"},
      {"measurement": "accumulation of Pt in dorsal root ganglia (DRG) nerve tissue", "setting": "[4]", "value": "minimal accumulation"},
      {"measurement": "nerve conduction velocity (NCV)", "setting": "[4]", "value": "no significant loss"},
      {"measurement": "potency difference between NER-deficient and NER-proficient HCT116 cells", "setting": "[5]", "value": "did not differ significantly"},
      {"measurement": "anti-CRT antibody staining (cell surface CRT)", "setting": "[6]", "value": "greater effect"},
      {"measurement": "release of ATP into the media", "setting": "murine TSA cells", "value": "robust release of ATP"},
      {"measurement": "IC50 values compared with cis, carbo and oxali", "setting": "[7]", "value": "superior to cis, carboplatin (carbo), and oxali in a majority of cell lines"},
      {"measurement": "tumor growth", "setting": "[8]", "value": "Sustained tumor growth delay"},
      {"measurement": "impact on p53 and MDM2 levels", "setting": "p53 and MDM2", "value": "noteworthy impact"},
      {"measurement": "cold hypersensitivity", "setting": "[9]", "value": "indistinguishable from untreated controls"},
      {"measurement": "effect on induction of Ku70", "setting": "[10]", "value": "minimal effect"},
      {"measurement": "effect on the phosphorylation of H2AX", "setting": "[10]", "value": "minimal effect"},
      {"measurement": "effects indicative of ICD induction (release of HMGB1 and ATP, cell surface exposure of CRT, suppression of STATS)", "setting": "[11]", "value": "significantly greater extent than oxali"},
      {"measurement": "HMGB1 release into the media", "setting": "[12]", "value": "significantly higher"},
      {"measurement": "changes in cytotoxic T cell (CD8+) and helper T cell (CD4+) populations in tumor", "setting": "CT26 cells", "value": "large changes"},
      {"measurement": "ratio of immunogenic to immunosuppressive T cell populations", "setting": "CT26 cells", "value": "favorable changes"},
      {"measurement": "Pt accumulation in DNA and whole cell extracts", "setting": "cancer cell models", "value": "significantly less Pt accumulation"}
    ]},
    {"smiles": "N.N.[Cl][Pt][Cl]", "note": "[cisplatin, reference compound]", "values": [
      {"measurement": "effects on renal function (creatinine, BUN and GFR)", "setting": "[2]; rat, in vivo", "value": "caused morbidity"},
      {"measurement": "potency difference between NER-deficient and NER-proficient HCT116 cells", "setting": "[5]", "value": "NER-competent cells were less sensitive"},
      {"measurement": "mice that developed tumors", "setting": "live tumor cells; within one week", "value": "80-90%"}
    ]},
    {"smiles": "O=C1c2c(O)ccc(O)c2C(=O)c2c(NCCNCCO)ccc(NCCNCCO)c21", "note": "[mitoxantrone]", "values": [
      {"measurement": "mice remaining tumor free", "setting": "live tumor cells; PT-112 group for over one month", "value": 40, "unit": "%"}
    ]},
    {"smiles": "O=C1[O][Pt]2([NH][C@@H]3CCCC[C@H]3[NH]2)[O]C1=O", "note": "[oxaliplatin, reference compound]", "values": [
      {"measurement": "nerve conduction velocity (NCV)", "setting": "[4]", "value": "dose-dependent declines"},
      {"measurement": "anti-CRT antibody staining (cell surface CRT)", "setting": "[6]", "value": "enhanced staining relative to control"},
      {"measurement": "HMGB1 release into the media", "setting": "[12]", "value": "elevated levels of HMGB1 in the media versus untreated control cells"},
      {"measurement": "fraction of Pt in the plasma ultrafiltrate (PUF)", "setting": "[13]", "value": 28.2, "unit": "%"}
    ]}
  ]
}
